Reference: article PMC7902086 (Toxicology letters, 2019)
Where “and” joins values, the source holds several entries; their conditions need not be identical. Equal entries are not always repeated.

Key:
[1] = tested on: μ-opioid receptors; conditions: ref Boyer et al., 2008; Kruegel et al., 2016; cited from earlier work
[2] = tested on: CYP3A4/5; experiment: CYP450 inhibition assay, testosterone 6β-hydroxylase in human liver microsomes; type: in vitro ADME; conditions: read-out: IC50, CYP3A4/5 Testosterone 6β-hydroxylase; human liver microsomes 0.1 mg/mL; mean of triplicate
[3] = tested on: CYP3A4/5; experiment: CYP450 inhibition assay, midazolam 1′-hydroxylase in human liver microsomes; type: in vitro ADME; conditions: read-out: IC50, CYP3A4/5 Midazolam 1′-hydroxylase; human liver microsomes 0.1 mg/mL; mean of triplicate
[4] = target: CYP2C19 (Homo sapiens, UniProt P33261); experiment: CYP450 inhibition assay, S-mephenytoin 4′-hydroxylase in human liver microsomes; type: in vitro ADME; conditions: read-out: IC50, CYP2C19 S-Mephenytoin 4′-hydroxylase; human liver microsomes 0.1 mg/mL; mean of triplicate
CYP2C19, sequence (P33261 whole entry): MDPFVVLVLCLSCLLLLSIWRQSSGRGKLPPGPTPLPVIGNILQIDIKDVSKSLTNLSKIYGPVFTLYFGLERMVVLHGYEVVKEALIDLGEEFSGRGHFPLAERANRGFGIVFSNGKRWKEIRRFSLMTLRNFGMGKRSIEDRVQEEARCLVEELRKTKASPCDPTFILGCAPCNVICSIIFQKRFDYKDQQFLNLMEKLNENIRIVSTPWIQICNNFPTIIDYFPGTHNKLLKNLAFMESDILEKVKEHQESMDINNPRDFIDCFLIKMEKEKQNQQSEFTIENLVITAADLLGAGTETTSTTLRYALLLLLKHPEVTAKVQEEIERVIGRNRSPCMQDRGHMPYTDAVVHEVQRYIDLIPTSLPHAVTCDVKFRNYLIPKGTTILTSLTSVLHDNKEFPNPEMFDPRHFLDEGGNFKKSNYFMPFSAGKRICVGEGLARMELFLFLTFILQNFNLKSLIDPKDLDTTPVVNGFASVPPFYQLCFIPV

[5] = target: CYP2D6 (Homo sapiens, UniProt P10635); conditions: known CYP2D6 substrates; ref Obach et al., 2006; cited from earlier work
CYP2D6, sequence (P10635 whole entry): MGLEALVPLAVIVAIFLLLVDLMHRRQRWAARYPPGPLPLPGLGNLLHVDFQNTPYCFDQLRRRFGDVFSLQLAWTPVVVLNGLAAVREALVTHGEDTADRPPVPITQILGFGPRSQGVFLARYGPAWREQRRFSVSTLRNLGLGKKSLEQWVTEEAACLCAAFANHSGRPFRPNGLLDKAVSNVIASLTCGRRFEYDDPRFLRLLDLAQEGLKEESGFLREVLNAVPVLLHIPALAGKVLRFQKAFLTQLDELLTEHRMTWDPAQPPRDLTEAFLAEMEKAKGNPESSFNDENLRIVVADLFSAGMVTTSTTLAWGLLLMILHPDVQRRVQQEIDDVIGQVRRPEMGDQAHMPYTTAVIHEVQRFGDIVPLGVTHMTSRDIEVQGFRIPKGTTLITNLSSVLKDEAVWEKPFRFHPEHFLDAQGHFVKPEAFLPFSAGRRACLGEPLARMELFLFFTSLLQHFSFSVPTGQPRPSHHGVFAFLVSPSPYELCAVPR

[6] = deceased kratom users in the United States, autopsies; ref Gershman et al., 2019; cited from earlier work
[7] = tested on: CYP3A4; conditions: in humans; ref Kamble et al., 2019; cited from earlier work

Compound	IC50 [2]	IC50 [3]	IC50 [4]	fm, CYP2D6 [5]	other results
CC[C@@H]1CN2CC[C@@]3(O)C(=Nc4cccc(OC)c43)[C@@H]2C[C@@H]1/C(=C\OC)C(=O)OC [7HMG, 7-hydroxymitragynine]	> 45 µM	> 45 µM	27.7 µM	–	activity at μ-opioid receptors [1]: partial agonists
C=C[C@H]1CN2CCc3c([nH]c4cccc(OC)c34)[C@@H]2C[C@@H]1/C(=C\OC)C(=O)OC [PAY, paynantheine]	> 45 µM	7.9 µM	38.4 µM	–	–
CC[C@@H]1CN2CCc3c([nH]c4cccc(OC)c34)[C@H]2C[C@@H]1/C(=C\OC)C(=O)OC [SPC, speciocilliatine]	> 45 µM	26.4 µM	8 µM	–	–
CC[C@H]1CN2CCc3c([nH]c4cccc(OC)c34)[C@@H]2C[C@@H]1/C(=C\OC)C(=O)OC [SPG, speciogynine]	> 45 µM	13.5 µM	19.5 µM	–	–
CNCCCN1c2ccccc2CCc2ccccc21 [desipramine]	–	–	–	0.9	–
COc1ccc2c(c1)[C@]13CCCC[C@@H]1[C@H](C2)N(C)CC3 [dextromethorphan]	–	–	–	1	–
COCCc1ccc(OCC(O)CNC(C)C)cc1 (stereo not shown) [metoprolol]	–	–	–	0.8	–
mitragynine [MTG]	–	–	–	–	activity at μ-opioid receptors [1]: partial agonists; serum concentration levels [6]: 16 to 4800 ng/mL and 0.041–12.05 μM; enzyme predominantly responsible for metabolism [7]: predominantly metabolized by CYP3A4
